Columns and labels:
Test in all cases: relative viability (nuclei count vs DMSO), 5 days (fraction); higher = more cells survive
[1] = compound: CN(C)C(=N)NC(=N)N [Metformin] + Nc1nc2[nH]cc(CCc3ccc(C(=O)N[C@@H](CCC(=O)O)C(=O)O)cc3)c2c(=O)[nH]1 [Pemetrexed] (partner 0.2 µM)
Method in brief: (§1)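 Each reported value is a median over duplicate plates. It expresses relative viability: treated-well nuclei count divided by vehicle-well nuclei count. Lung cancer cell lines in 1536-well plates were dosed by pin tool a day after seeding, alone with one drug or with a fixed anchor-drug dose plus five library-drug doses (not always all listed) in √10 steps, and nuclei were counted after 5 days.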

[2] = compound: N#CC1(c2ccc(NC(=O)c3cccnc3NCc3ccncc3)cc2)CCCC1 [Apatinib] + Nc1nc2[nH]cc(CCc3ccc(C(=O)N[C@@H](CCC(=O)O)C(=O)O)cc3)c2c(=O)[nH]1 [Pemetrexed] (partner 0.2 µM)
Method in brief: as §1

[3] = compound: N#CC1(c2ccc(NC(=O)c3cccnc3NCc3ccncc3)cc2)CCCC1 [Apatinib] + CC(=O)Nc1cccc(-n2c(=O)n(C3CC3)c(=O)c3c(Nc4ccc(I)cc4F)n(C)c(=O)c(C)c32)c1 [Trametinib] (partner 0.02 µM)
Method in brief: as §1

[4] = compound: N#CC1(c2ccc(NC(=O)c3cccnc3NCc3ccncc3)cc2)CCCC1 [Apatinib] + COc1cc2c(Oc3ccc(NC(=O)C4(C(=O)Nc5ccc(F)cc5)CC4)cc3F)ccnc2cc1OCCCN1CCOCC1 [Foretinib] (partner 0.25 µM)
Method in brief: as §1

Row | Cell Line | relative viability ([1]; first compound 10 µM) | relative viability ([1]; first compound 31.62 µM) | relative viability ([1]; first compound 100 µM) | relative viability ([1]; first compound 316.23 µM) | relative viability ([1]; first compound 1000 µM) | relative viability ([2]; first compound 0.08 µM) | relative viability ([2]; first compound 0.253 µM) | relative viability ([2]; first compound 0.8 µM) | relative viability ([2]; first compound 2.53 µM) | relative viability ([2]; first compound 8 µM) | relative viability ([3]; first compound 0.08 µM) | relative viability ([3]; first compound 0.253 µM) | relative viability ([3]; first compound 0.8 µM) | relative viability ([3]; first compound 2.53 µM) | relative viability ([3]; first compound 8 µM) | relative viability ([4]; first compound 0.08 µM) | relative viability ([4]; first compound 0.253 µM) | relative viability ([4]; first compound 0.8 µM) | relative viability ([4]; first compound 2.53 µM) | relative viability ([4]; first compound 8 µM)
1 | NCI-H1792 | 0.968 | 0.862 | 0.952 | 0.697 | 0.903 | 0.984 | 0.722 | 0.993 | 0.558 | 0.447 | 0.433 | 0.436 | 0.349 | 0.342 | 0.302 |  |  |  |  | 
2 | SW 1573 | 0.728 | 0.817 | 0.668 | 0.725 | 0.743 | 0.87 | 0.854 | 0.806 | 0.708 | 0.394 | 0.554 | 0.729 | 0.543 | 0.603 | 0.352 | 0.981 | 1.07 | 0.963 | 0.854 | 0.821
3 | HCC-827 | 0.236 | 0.282 | 0.265 | 0.263 | 0.263 | 0.254 | 0.25 | 0.247 | 0.231 | 0.258 | 0.525 | 0.533 | 0.492 | 0.519 | 0.425 | 1.05 | 1.04 | 1.01 | 1 | 0.763
4 | NCI-H358 | 0.156 | 0.182 | 0.146 | 0.162 | 0.179 | 0.173 | 0.165 | 0.233 | 0.163 | 0.128 | 0.144 | 0.12 | 0.179 | 0.159 | 0.131 | 0.83 | 0.912 | 0.671 | 0.685 | 0.696
5 | Calu-6 |  |  |  |  |  |  |  |  |  |  |  |  |  |  |  | 0.994 | 0.915 | 0.799 | 0.766 | 0.791
6 | LOU-NH91 | 0.438 | 0.394 | 0.409 | 0.385 | 0.437 | 0.418 | 0.396 | 0.424 | 0.336 | 0.303 | 0.826 | 0.745 | 0.716 | 0.717 | 0.729 | 0.979 | 0.891 | 0.836 | 0.891 | 0.829
7 | CAL-12T | 1.05 | 1.04 | 1.26 | 1.13 | 0.97 | 1.38 | 1.25 | 1.1 | 0.897 | 0.917 | 0.385 | 0.337 | 0.289 | 0.313 | 0.249 | 1.3 | 1.14 | 1.11 | 0.992 | 0.974
8 | IA-LM |  |  |  |  |  |  |  |  |  |  |  |  |  |  |  | 1.33 | 1.13 | 1.09 | 0.703 | 0.38
9 | NCI-H1703 |  |  |  |  |  |  |  |  |  |  |  |  |  |  |  | 0.37 | 0.345 | 0.31 | 0.297 | 0.37
10 | BEN | 1.11 | 1.08 | 0.733 | 0.812 | 0.64 | 0.64 | 0.563 | 0.71 | 0.696 | 0.534 | 1.22 | 0.944 | 1.11 | 0.948 | 0.687 | 0.477 | 0.548 | 0.668 | 0.558 | 0.726

Reference: the supplement of paper PMC10307832
